Source: US20060069132A1, “Azolecarboxamide herbicides” (priority 2004, published 2006)

Key:
[1] = system: Surinam grass; experiment: Test C pre-/postemergence herbicide test; assay type: in vivo, Urochloa decumbens; details: for Surinam Grass plant response rating: 500 g ai/ha
Method in brief: (§1)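 Emerged plants at the 1- to 4-leaf stage (2–18 cm), or freshly planted seeds, received test chemicals in a non-phytotoxic solvent mixture with surfactant. Response was visually scored against controls after 12 to 14 days in the greenhouse, on a 0 (no effect) to 100 (complete control) scale.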

[2] = system: corn; experiment: Test C pre-/postemergence herbicide test; assay type: in vivo, Zea mays; details: for Corn plant response rating: 500 g ai/ha
Method in brief: as §1

[3] = system: giant foxtail; experiment: Test C pre-/postemergence herbicide test; assay type: in vivo, Setaria faberi; details: for Foxtail, Giant plant response rating: 500 g ai/ha
Method in brief: as §1

[4] = system: johnsongrass; experiment: Test C pre-/postemergence herbicide test; assay type: in vivo, Sorghum halepense; details: for Johnsongrass plant response rating: 500 g ai/ha
Method in brief: as §1

[5] = system: lambsquarters; experiment: Test C pre-/postemergence herbicide test; assay type: in vivo, Chenopodium album; details: for Lambsquarters plant response rating: 500 g ai/ha
Method in brief: as §1

[6] = system: morningglory; experiment: Test C pre-/postemergence herbicide test; assay type: in vivo, Ipomoea coccinea; parameters: key to Plant response rating, Morningglory: 0 = no effect, 100 = complete control; details: for Morningglory plant response rating: 500 g ai/ha
Method in brief: as §1

[7] = system: eastern black nightshade; experiment: Test C pre-/postemergence herbicide test; assay type: in vivo, Solanum ptycanthum; details: for Nightshade plant response rating: Preemergence, 500 g ai/ha, scale 0 to 100, 0 no effect, 100 complete control
Method in brief: as §1

[8] = system: yellow nutsedge; experiment: Test C pre-/postemergence herbicide test; assay type: in vivo, Cyperus esculentus; details: for Nutsedge, Yellow plant response rating: 500 g ai/ha
Method in brief: as §1

[9] = system: common ragweed; experiment: Test C pre-/postemergence herbicide test; assay type: in vivo, Ambrosia elatior; parameters: key to Plant response rating, Ragweed: 0 = no effect, 100 = complete control; details: for Ragweed plant response rating: 500 g ai/ha
Method in brief: as §1

[10] = system: soybean; experiment: Test C pre-/postemergence herbicide test; assay type: in vivo, Glycine max; details: for Soybean plant response rating: 500 g ai/ha
Method in brief: as §1

[11] = system: smallflower umbrella sedge; experiment: Test C flooded paddy test; assay type: in vivo, Cyperus difformis
[12] = system: ducksalad; experiment: Test C flooded paddy test; assay type: in vivo, Heteranthera limosa
[13] = system: barnyardgrass; experiment: Test C flooded paddy test; assay type: in vivo, Echinochloa crus-galli
Method in brief: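 Injury scored visually against controls on a 0 (no effect) to 100 (complete control) scale, 12 to 14 days after treatment in greenhouse. Flooded paddy plants treated at 2-leaf stage; postemergence plants at 1- to 4-leaf stage, 2 to 18 cm tall.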

[14] = 125 g ai/ha, scale 0 (no effect) to 100 (complete control), visual, 12 to 14 days, preemergence
[15] = Postemergence, 250 g ai/ha, scale 0 to 100, 0 no effect, 100 complete control
[16] = Preemergence, scale 0 to 100, 0 no effect, 100 complete control
[17] = postemergence, 125 g ai/ha, scale 0 to 100
[18] = postemergence, 62 g ai/ha, scale 0 to 100
[19] = 250 g ai/ha, scale 0 to 100 (0 no effect, 100 complete control), visual, 12 to 14 days, preemergence
[20] = 62 g ai/ha, scale 0 to 100 (0 no effect, 100 complete control)
[21] = 125 g ai/ha, scale 0 to 100 (0 no effect, 100 complete control)
[22] = 62 g ai/ha, preemergence, scale 0 to 100
[23] = 250 g ai/ha, scale 0-100, preemergence
[24] = 250 g ai/ha, scale of 0 to 100, 0 is no effect, 100 is complete control
[25] = 500 g ai/ha, visual rating after 12 to 14 days, scale 0 to 100 (0 no effect, 100 complete control)

C#CCNC(=O)c1cccc(NC(=O)c2cc(C(C)(C)C)nn2CC)n1 [Compound 147]
70: Plant response rating (0 = no effect, 100 = complete control), Lambsquarters ([5]; 62 g ai/ha, preemergence) | Plant response rating, Nightshade [7, 14] | Ragweed plant response rating [9, 16] | Soybean plant response rating ([10]; Postemergence, scale 0 to 100)
15: Corn plant response rating ([2]; Postemergence, scale 0 to 100)
80: Johnsongrass plant response rating [4, 16]
40: Plant response rating, Johnsongrass [4, 14] | Plant response rating (0 = no effect, 100 = complete control), Nightshade ([7]; 62 g ai/ha, preemergence) | Plant response rating, Soybean [10, 15]
0: Plant response rating (0 = no effect, 100 = complete control), Surinam Grass ([1]; 62 g ai/ha, preemergence) | Plant response rating, Surinam Grass [1, 17] | Plant response rating, Surinam Grass [1, 18] | Plant response rating (0 = no effect, 100 = complete control), Corn ([2]; 62 g ai/ha, preemergence) | Plant response rating, Corn [2, 14] | Plant response rating, Corn [2, 19] | Plant response rating, Corn [2, 18] | Plant response rating (0 = no effect, 100 = complete control), Foxtail, Giant ([3]; 62 g ai/ha, preemergence) | Plant response rating, Foxtail, Giant [3, 14] | Plant response rating, Foxtail, Giant [3, 15] | Plant response rating, Foxtail, Giant [3, 17] | Plant response rating, Foxtail, Giant [3, 18] | Plant response rating (0 = no effect, 100 = complete control), Johnsongrass ([4]; 62 g ai/ha, preemergence) | Plant response rating, Johnsongrass [4, 18] | Plant response rating (0 = no effect, 100 = complete control), Morningglory ([6]; 62 g ai/ha, preemergence) | Plant response rating, Morningglory [6, 14] | Morningglory plant response rating ([6]; Postemergence, scale 0 to 100) | Plant response rating, Morningglory [6, 15] | Morningglory plant response rating [6, 16] | Plant response rating, Morningglory [6, 17] | Plant response rating, Morningglory [6, 18] | Plant response rating (0 = no effect, 100 = complete control), Nutsedge, Yellow ([8]; 62 g ai/ha, preemergence) | Plant response rating, Nutsedge, Yellow [8, 14] | Nutsedge, Yellow plant response rating ([8]; Postemergence, scale 0 to 100) | Plant response rating, Nutsedge, Yellow [8, 15] | Nutsedge, Yellow plant response rating [8, 16] | Plant response rating, Nutsedge, Yellow [8, 17] | Plant response rating, Nutsedge, Yellow [8, 18] | Plant response rating (0 = no effect, 100 = complete control), Ragweed ([9]; 62 g ai/ha, preemergence) | Plant response rating, Ragweed [9, 14] | Plant response rating, Ragweed [9, 17] | Plant response rating, Ragweed [9, 18] | Plant response rating (0 = no effect, 100 = complete control), Soybean ([10]; 62 g ai/ha, preemergence) | Plant response rating, Soybean [10, 14] | Sedge, Umbrella plant response rating ([11]; 16 g ai/ha, scale 0 to 100) | Ducksalad plant response rating ([12]; 16 g ai/ha, scale 0 to 100) | Ducksalad plant response rating ([12]; 31 g ai/ha, scale 0 to 100) | Ducksalad plant response rating [12, 20] | Ducksalad plant response rating [12, 21] | Barnyardgrass plant response rating ([13]; 16 g ai/ha, scale 0 to 100) | Barnyardgrass plant response rating ([13]; 31 g ai/ha, scale 0 to 100) | Barnyardgrass plant response rating [13, 20] | Barnyardgrass plant response rating ([13]; 125 g ai/ha, scale of 0 to 100, 0 is no effect, 100 is complete control)
10: Plant response rating, Surinam Grass [1, 14] | Plant response rating, Corn [2, 15] | Johnsongrass plant response rating ([4]; Postemergence, scale 0 to 100) | Plant response rating, Johnsongrass [4, 15] | Ragweed plant response rating ([9]; Postemergence, scale 0 to 100) | Plant response rating, Ragweed [9, 15] | Plant response rating, Soybean [10, 18]
30: Plant response rating, Surinam Grass [1, 15] | Plant response rating, Foxtail, Giant [3, 19] | Sedge, Umbrella plant response rating [11, 20]
60: Surinam Grass plant response rating ([1]; Postemergence, scale 0 to 100) | Surinam Grass plant response rating [1, 16] | Corn plant response rating [2, 16]
5: Plant response rating, Corn [2, 17] | Soybean plant response rating [10, 16]
45: Foxtail, Giant plant response rating ([3]; Postemergence, scale 0 to 100)
35: Plant response rating, Soybean [10, 17]
100: Foxtail, Giant plant response rating [3, 16] | Lambsquarters plant response rating ([5]; Postemergence, scale 0 to 100) | Plant response rating, Lambsquarters [5, 15] | Lambsquarters plant response rating [5, 16] | Plant response rating, Lambsquarters [5, 17] | Nightshade plant response rating [7]
20: Sedge, Umbrella plant response rating ([11]; 31 g ai/ha, scale 0 to 100)
50: Sedge, Umbrella plant response rating [11, 21]
90: Plant response rating, Lambsquarters [5, 14] | Plant response rating, Lambsquarters [5, 18]

CCNC(=O)c1ccc(F)c(NC(=O)c2cn(C(C)(C)C)nc2CC)c1 [Compound 193]
10: Plant response rating, Corn [2, 22] | Plant response rating, Nutsedge, Yellow [8, 23]
85: Plant response rating, Johnsongrass [4, 14] | Plant response rating, Nightshade [7, 23] | Plant response rating, Sedge, Umbrella [11, 25] | Barnyardgrass plant response rating [13, 24]
80: Plant response rating, Surinam Grass [1, 14] | Plant response rating, Foxtail, Giant [3, 23] | Sedge, Umbrella plant response rating [11, 24]
70: Ducksalad plant response rating [12, 21]
100: Surinam Grass plant response rating [1, 16] | Corn plant response rating [2, 16] | Foxtail, Giant plant response rating [3, 16] | Johnsongrass plant response rating [4, 16] | Plant response rating, Lambsquarters [5, 14] | Plant response rating, Lambsquarters [5, 23] | Lambsquarters plant response rating [5, 16] | Plant response rating, Morningglory [6, 23] | Morningglory plant response rating [6, 16] | Nightshade plant response rating [7] | Plant response rating, Ragweed [9, 14] | Plant response rating, Ragweed [9, 23] | Ragweed plant response rating [9, 16] | Soybean plant response rating [10, 16]
60: Plant response rating, Corn [2, 14] | Plant response rating, Johnsongrass [4, 22] | Nutsedge, Yellow plant response rating [8, 16]
20: Plant response rating, Morningglory [6, 22] | Plant response rating, Morningglory [6, 14]
75: Sedge, Umbrella plant response rating [11, 20] | Sedge, Umbrella plant response rating [11, 21]
30: Plant response rating, Soybean [10, 22] | Plant response rating, Soybean [10, 14] | Barnyardgrass plant response rating [13, 20]
55: Ducksalad plant response rating [12, 20] | Barnyardgrass plant response rating [13, 21]
90: Plant response rating, Johnsongrass [4, 23] | Ducksalad plant response rating [12, 24] | Plant response rating, Ducksalad [12, 25] | Plant response rating, Barnyardgrass [13, 25]
40: Plant response rating, Foxtail, Giant [3, 22]
95: Plant response rating, Surinam Grass [1, 23] | Plant response rating, Corn [2, 23]
0: Plant response rating, Nightshade [7, 22] | Plant response rating, Nutsedge, Yellow [8, 22] | Plant response rating, Nutsedge, Yellow [8, 14] | Plant response rating, Ragweed [9, 22]
50: Plant response rating, Surinam Grass [1, 22] | Plant response rating, Foxtail, Giant [3, 14] | Plant response rating, Lambsquarters [5, 22] | Plant response rating, Nightshade [7, 14] | Plant response rating, Soybean [10, 23]
